Experimental data from ChEMBL document CHEMBL4000232, “Structure-based optimization of 1H-imidazole-2-carboxamides as Axl kinase inhibitors utilizing a Mer mutant surrogate” (Bioorg Med Chem Lett, 2017).

Legend:
[1] = Extraction ratio in human hepatic microsomes; type: ADME, Microsome; conditions: liver microsomes, read-out: ERH
[2] = target: T1, Tyrosine-protein kinase receptor UFO (Homo sapiens, UniProt P30530); experiment: Inhibition of Axl (unknown origin)
T1 sequence (P30530 whole entry): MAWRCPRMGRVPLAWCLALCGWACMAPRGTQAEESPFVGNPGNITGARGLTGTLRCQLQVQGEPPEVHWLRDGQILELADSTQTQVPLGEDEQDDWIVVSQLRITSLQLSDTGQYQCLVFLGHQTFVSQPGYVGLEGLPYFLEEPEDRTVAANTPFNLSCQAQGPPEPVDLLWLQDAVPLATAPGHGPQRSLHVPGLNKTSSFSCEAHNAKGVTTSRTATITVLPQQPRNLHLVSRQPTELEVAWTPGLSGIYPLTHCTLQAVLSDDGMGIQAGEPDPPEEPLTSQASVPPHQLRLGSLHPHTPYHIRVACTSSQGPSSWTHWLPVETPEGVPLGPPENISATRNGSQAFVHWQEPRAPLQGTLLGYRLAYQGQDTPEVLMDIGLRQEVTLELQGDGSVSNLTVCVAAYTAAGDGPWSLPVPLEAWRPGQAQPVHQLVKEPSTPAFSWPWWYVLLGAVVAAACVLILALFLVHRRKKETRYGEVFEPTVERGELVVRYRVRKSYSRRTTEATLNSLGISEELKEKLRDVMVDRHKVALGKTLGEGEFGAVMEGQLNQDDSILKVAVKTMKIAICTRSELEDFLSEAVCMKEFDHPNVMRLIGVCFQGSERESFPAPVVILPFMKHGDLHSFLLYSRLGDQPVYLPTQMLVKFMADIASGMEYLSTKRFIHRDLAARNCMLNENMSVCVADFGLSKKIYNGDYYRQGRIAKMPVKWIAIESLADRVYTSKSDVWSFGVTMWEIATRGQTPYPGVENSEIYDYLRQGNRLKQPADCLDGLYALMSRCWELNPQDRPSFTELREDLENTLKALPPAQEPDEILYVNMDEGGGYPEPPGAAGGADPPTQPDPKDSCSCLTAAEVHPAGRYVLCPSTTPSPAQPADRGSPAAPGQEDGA

[3] = Extraction ratio in rat hepatic microsomes; type: ADME, Microsome; conditions: liver microsomes, read-out: ERH
[4] = Permeability of the compound by PAMPA; type: physicochemical; conditions: read-out: permeability
[5] = target: hERG (KCNH2) (Homo sapiens, UniProt Q12809); experiment: Inhibition of human ERG at 10 uM relative to control
[6] = Clearance in rat; type: ADME; conditions: in vivo
[7] = Oral bioavailability in rat; type: ADME, organism-based; conditions: in vivo
[8] = Protein binding in rat plasma; type: ADME, cell-free; conditions: read-out: PPB (converted)
[9] = system: HepG2; experiment: Cytotoxicity against human HepG2 cells; type: functional
[10] = Inhibition of CYP450 (unknown origin); type: ADME; conditions: human
[11] = Protein binding in human plasma; type: ADME, cell-free; conditions: read-out: PPB (converted)
[12] = system: Liver; experiment: Intrinsic clearance in rat liver microsomes; type: ADME, microsome

Sequence of hERG (KCNH2) (Q12809 whole entry): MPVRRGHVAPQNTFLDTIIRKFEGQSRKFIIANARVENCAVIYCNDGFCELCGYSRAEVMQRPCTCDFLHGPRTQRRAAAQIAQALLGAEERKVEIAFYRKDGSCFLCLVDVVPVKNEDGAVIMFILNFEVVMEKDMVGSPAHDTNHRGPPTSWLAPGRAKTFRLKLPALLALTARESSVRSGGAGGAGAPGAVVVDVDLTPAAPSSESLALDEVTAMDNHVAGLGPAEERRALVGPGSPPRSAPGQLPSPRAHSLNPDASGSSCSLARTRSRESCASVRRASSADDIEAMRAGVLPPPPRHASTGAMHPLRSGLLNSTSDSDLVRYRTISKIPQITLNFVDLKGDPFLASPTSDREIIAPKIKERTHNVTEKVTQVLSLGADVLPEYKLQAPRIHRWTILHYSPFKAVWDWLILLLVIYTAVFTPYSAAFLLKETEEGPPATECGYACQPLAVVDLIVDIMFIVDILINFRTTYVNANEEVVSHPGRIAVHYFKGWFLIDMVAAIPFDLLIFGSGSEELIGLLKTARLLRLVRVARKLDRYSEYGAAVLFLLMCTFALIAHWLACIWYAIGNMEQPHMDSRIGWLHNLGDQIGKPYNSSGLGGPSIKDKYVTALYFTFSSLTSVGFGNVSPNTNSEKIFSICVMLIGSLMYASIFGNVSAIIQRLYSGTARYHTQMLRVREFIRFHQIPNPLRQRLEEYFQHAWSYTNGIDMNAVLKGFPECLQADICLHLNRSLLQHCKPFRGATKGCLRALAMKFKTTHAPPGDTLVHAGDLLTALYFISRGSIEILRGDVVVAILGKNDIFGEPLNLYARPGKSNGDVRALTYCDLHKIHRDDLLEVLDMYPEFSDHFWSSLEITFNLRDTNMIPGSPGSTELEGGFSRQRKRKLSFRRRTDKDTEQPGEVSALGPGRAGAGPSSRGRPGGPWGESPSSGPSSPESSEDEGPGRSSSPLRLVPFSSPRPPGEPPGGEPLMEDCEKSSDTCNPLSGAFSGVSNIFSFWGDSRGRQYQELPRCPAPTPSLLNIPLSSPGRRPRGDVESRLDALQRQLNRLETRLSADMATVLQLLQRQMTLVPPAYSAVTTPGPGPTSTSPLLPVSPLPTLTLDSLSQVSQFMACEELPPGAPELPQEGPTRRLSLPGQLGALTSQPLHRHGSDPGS

hepatic extraction ratio [1] | IC50 [2] [nM] | hepatic extraction ratio [3] | Structure (SMILES) | other results
0.86 | > 1000 | 0.87 | CS(=O)(=O)N1CCC[C@H](c2csc(-c3ccccc3NC(=O)c3nc4ccccc4[nH]3)n2)C1 | –
– | – | – | CS(=O)(=O)N1CCC[C@H](c2csc(-c3ccccc3NC(=O)c3ncc[nH]3)n2)C1 | Papp [4]: 15.7 ×10⁻⁶ cm/s; inhibition at 10 µM [5]: 94%; clearance [6]: 20 mL/min/kg; bioavailability [7]: 13%
– | – | – | CS(=O)(=O)N1CCO[C@H](c2csc(-c3cc(N4CCOCC4)ccc3NC(=O)c3ncc[nH]3)n2)C1 | Papp [4]: 18.4 ×10⁻⁶ cm/s; fraction unbound [8]: 0.1; inhibition at 10 µM [5]: 19%; Activity [9]: 14 µM; clearance [6]: 54 mL/min/kg; inhibition (INH) [10]: > 16%; fraction unbound [11]: 0.21; CLH [12]: 35 mL/min/kg; bioavailability [7]: 38%
0.95 | > 630 | 0.86 | CCS(=O)(=O)N1CCC[C@H](c2csc(-c3ccccc3NC(=O)c3ncc[nH]3)n2)C1 | –
0.9 | > 1000 | 0.71 | CS(=O)(=O)N1CCC[C@H](c2csc(-c3ccccc3NC(=O)c3cnc[nH]3)n2)C1 | –
0.78 | > 1000 | 0.67 | CC(=O)N1CCC[C@H](c2csc(-c3ccccc3NC(=O)c3ncc[nH]3)n2)C1 | –
0.75 | > 1000 | 0.69 | COC(=O)N1CCC[C@H](c2csc(-c3ccccc3NC(=O)c3ncc[nH]3)n2)C1 | –
